# Experimental data from patent US20170050957A1, “4-AMINO-6-(HETEROCYCLIC)PICOLINATES AND 6-AMINO-2-(HETEROCYCLIC)PYRIMIDINE-4-CARBOXYLATES AND THEIR USE AS HERBICIDES” (Dow AgroSciences LLC, priority 2013, published 2017).
# Read-outs that look alike come from different tables or passages of the source.
# Assays:
# [1] = system: Key Broadleaf Weed and Crop Species; assay: Post-emergent Test II herbicidal activity (Table 15); format: in vivo; conditions: post-emergence, 336 h, 14 d; for pest or weed control at 35 g/ha: 35 g ai/ha; for pest or weed control at 70 g/ha: 70 g ai/ha; for pest or weed control at 140 g/ha: 140 g ai/ha
# Summary of the method: (§1)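 Plants at first-second true leaf stage, grown 7-21 d in greenhouse (~15 h photoperiod, 23-29 °C day), were track-sprayed at 187 L/ha with compound in acetone/DMSO/water/isopropanol/crop oil/Triton X-155 at a high rate plus 1/2× to 1/16× dilutions. Injury scored visually after 14 d versus untreated plants, 0 (none) to 100% (complete kill).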
# [2] = system: Key Grass and Sedge Weeds as well as Grass Crops; assay: Post-emergent Test II herbicidal activity (Table 16); format: in vivo; conditions: post-emergence, 336 h, 14 d; for pest or weed control at 35 g/ha: 35 g ai/ha; for pest or weed control at 70 g/ha: 70 g ai/ha; for pest or weed control at 140 g/ha: 140 g ai/ha
# Summary of the method: as §1
# [3] = Abutilon theophrasti, velvetleaf (Abutilon theophrasti), read-out: Visual Growth Reduction (%) 14 Days After Application, ABUTH
# [4] = Amaranthus retroflexus, redroot pigweed (Amaranthus retroflexus), read-out: Visual Growth Reduction (%) 14 Days After Application, AMARE
# [5] = Brassica napus, oilseed rape, canola (Brassica napus), read-out: Visual Growth Reduction (%) 14 Days After Application, BRSNN
# [6] = Chenopodium album, lambsquarters (Chenopodium album), read-out: Visual Growth Reduction (%) 14 Days After Application, CHEAL
# [7] = Euphorbia heterophylla, wild poinsettia (Euphorbia heterophylla), read-out: Visual Growth Reduction (%) 14 Days After Application, EPHHL
# [8] = Helianthus annuus, sunflower (Helianthus annuus), read-out: Visual Growth Reduction (%) 14 Days After Application, HELAN
# [9] = Cyperus esculentus, yellow nutsedge (Cyperus esculentus), read-out: Visual Growth Reduction (%) 14 Days After Application, CYPES
# [10] = Echinochloa crus-galli, barnyardgrass (Echinochloa crus-galli), read-out: Visual Growth Reduction (%) 14 Days After Application, ECHCG
# [11] = Oryza sativa, rice (Oryza sativa), read-out: Visual Growth Reduction (%) 14 Days After Application, ORYSA
# [12] = Setaria faberi, giant foxtail (Setaria faberi), read-out: Visual Growth Reduction (%) 14 Days After Application, SETFA
# [13] = Triticum aestivum, wheat, spring (Triticum aestivum), read-out: Visual Growth Reduction (%) 14 Days After Application, TRZAS
# [14] = Zea mays, maize, corn (Zea mays), read-out: Visual Growth Reduction (%) 14 Days After Application, ZEAMX
SMILES,"pest or weed control at 35 g/ha [1, 3]","pest or weed control at 70 g/ha [1, 3]","pest or weed control at 140 g/ha [1, 3]","pest or weed control at 35 g/ha [1, 4]","pest or weed control at 70 g/ha [1, 4]","pest or weed control at 140 g/ha [1, 4]","pest or weed control at 35 g/ha [1, 5]","pest or weed control at 70 g/ha [1, 5]","pest or weed control at 140 g/ha [1, 5]","pest or weed control at 35 g/ha [1, 6]","pest or weed control at 70 g/ha [1, 6]","pest or weed control at 140 g/ha [1, 6]","pest or weed control at 35 g/ha [1, 7]","pest or weed control at 70 g/ha [1, 7]","pest or weed control at 140 g/ha [1, 7]","pest or weed control at 35 g/ha [1, 8]","pest or weed control at 70 g/ha [1, 8]","pest or weed control at 140 g/ha [1, 8]","pest or weed control at 35 g/ha [2, 9]","pest or weed control at 70 g/ha [2, 9]",also measured
COC(=O)c1nc(-c2ccc(Cl)c3[nH]ccc23)nc(N)c1OC [Compound 1.45],0 to 29%,0 to 29%,0 to 29%,0 to 29%,0 to 29%,45 to 59%,0 to 29%,0 to 29%,0 to 29%,0 to 29%,0 to 29%,0 to 29%,0 to 29%,0 to 29%,0 to 29%,0 to 29%,0 to 29%,30 to 44%,0 to 29%,0 to 29%,"pest or weed control at 140 g/ha [2, 9]: 0 to 29%; pest or weed control at 35 g/ha [2, 10]: 0 to 29%; pest or weed control at 70 g/ha [2, 10]: 0 to 29%; pest or weed control at 140 g/ha [2, 10]: 0 to 29%; pest or weed control at 35 g/ha [2, 11]: 0 to 29%; pest or weed control at 70 g/ha [2, 11]: 0 to 29%; pest or weed control at 140 g/ha [2, 11]: 0 to 29%; pest or weed control at 35 g/ha [2, 12]: 0 to 29%; pest or weed control at 70 g/ha [2, 12]: 0 to 29%; pest or weed control at 140 g/ha [2, 12]: 0 to 29%; pest or weed control at 35 g/ha [2, 13]: 0 to 29%; pest or weed control at 70 g/ha [2, 13]: 0 to 29%; pest or weed control at 140 g/ha [2, 13]: 0 to 29%; pest or weed control at 35 g/ha [2, 14]: 0 to 29%; pest or weed control at 70 g/ha [2, 14]: 0 to 29%; pest or weed control at 140 g/ha [2, 14]: 0 to 29%; melting point: 226 °C"
COC(=O)c1nc(-c2cccc3cc[nH]c23)c(F)c(N)c1Cl [Compound 1.47],0 to 29%,0 to 29%,0 to 29%,0 to 29%,0 to 29%,30 to 44%,0 to 29%,0 to 29%,0 to 29%,75 to 84%,75 to 84%,85 to 94%,0 to 29%,0 to 29%,0 to 29%,0 to 29%,0 to 29%,45 to 59%,0 to 29%,0 to 29%,"pest or weed control at 140 g/ha [2, 9]: 0 to 29%; pest or weed control at 35 g/ha [2, 10]: 0 to 29%; pest or weed control at 70 g/ha [2, 10]: 0 to 29%; pest or weed control at 140 g/ha [2, 10]: 0 to 29%; pest or weed control at 35 g/ha [2, 11]: 0 to 29%; pest or weed control at 70 g/ha [2, 11]: 0 to 29%; pest or weed control at 140 g/ha [2, 11]: 0 to 29%; pest or weed control at 35 g/ha [2, 12]: 0 to 29%; pest or weed control at 70 g/ha [2, 12]: 0 to 29%; pest or weed control at 140 g/ha [2, 12]: 0 to 29%; pest or weed control at 35 g/ha [2, 13]: 0 to 29%; pest or weed control at 70 g/ha [2, 13]: 0 to 29%; pest or weed control at 140 g/ha [2, 13]: 0 to 29%; pest or weed control at 35 g/ha [2, 14]: 0 to 29%; pest or weed control at 70 g/ha [2, 14]: 0 to 29%; pest or weed control at 140 g/ha [2, 14]: 0 to 29%; melting point: 96 to 100 °C"
Nc1c(F)c(-c2ccc3occc3c2)nc(C(=O)O)c1Cl [Compound 2.02],45 to 59%,85 to 94%,85 to 94%,75 to 84%,95 to 100%,95 to 100%,0 to 29%,30 to 44%,30 to 44%,95 to 100%,95 to 100%,95 to 100%,75 to 84%,95 to 100%,95 to 100%,75 to 84%,85 to 94%,95 to 100%,0 to 29%,0 to 29%,"pest or weed control at 140 g/ha [2, 9]: 0 to 29%; pest or weed control at 35 g/ha [2, 10]: 85 to 94%; pest or weed control at 70 g/ha [2, 10]: 85 to 94%; pest or weed control at 140 g/ha [2, 10]: 95 to 100%; pest or weed control at 35 g/ha [2, 11]: 0 to 29%; pest or weed control at 70 g/ha [2, 11]: 0 to 29%; pest or weed control at 140 g/ha [2, 11]: 0 to 29%; pest or weed control at 35 g/ha [2, 12]: 60 to 74%; pest or weed control at 70 g/ha [2, 12]: 60 to 74%; pest or weed control at 140 g/ha [2, 12]: 75 to 84%; pest or weed control at 35 g/ha [2, 13]: 0 to 29%; pest or weed control at 70 g/ha [2, 13]: 30 to 44%; pest or weed control at 140 g/ha [2, 13]: 45 to 59%; pest or weed control at 35 g/ha [2, 14]: 95 to 100%; pest or weed control at 70 g/ha [2, 14]: 95 to 100%; pest or weed control at 140 g/ha [2, 14]: 95 to 100%; melting point: 165 to 167 °C"
